From patent publication US8217029B2, “Oxazolidinone antibiotics” (Actelion Pharmaceuticals Ltd, priority 2007, dated 2012)
In brackets after ≈: the same amount, converted by molar mass.

system: S aureus A798; assay: Minimal inhibitory concentration (MIC), microdilution method in cation-adjusted Mueller-Hinton Broth following NCCLS guidelines; format: cell-based; conditions: pH of test medium 7.2-7.3
Experimental: These assays have been performed following the description given in “Methods for dilution Antimicrobial Susceptibility Tests for Bacteria that Grow Aerobically, 4th ed.; Approved standard: NCCLS Document M7-A4; National Committee for Clinical Laboratory Standards Villanova, Pa., USA, 1997”. Minimal inhibitory concentrations (MICs; mg/l) were determined in cation-adjusted Mueller-Hinton Broth by a microdilution method following NCCLS guidelines (National Committee for Clinical Laboratory Standards. Methods for Dilution Antimicrobial Susceptibility). The pH of the test medium was 7.2-7.3. All Example compounds were tested against several Gram positive and Gram negative bacteria.

COc1ccc2nccc(N3CCC(NC[C@H]4CN(c5ccc6c(c5)NC(=O)CS6)C(=O)O4)CC3)c2n1 [Example 165, 6-((S)-5-{[1-(6-Methoxy-[1,5]naphthyridin-4-yl)-piperidin-4-ylamino]-methyl}-2-oxo-oxazolidin-3-yl)-4H-benzo[1,4]thiazin-3-one] and COc1ccc2ncc(F)c(N3CCC(NC[C@@H]4CN(c5ccc6c(c5)NC(=O)CS6)C(=O)O4)CC3)c2n1 [Example 122, 6-((R)-5-{[1-(3-Fluoro-6-methoxy-[1,5]naphthyridin-4-yl)-piperidin-4-ylamino]-methyl}-2-oxo-oxazolidin-3-yl)-4H-benzo[1,4]thiazin-3-one] cannot be ordered by MIC: no more than 0.031 µg/mL for the first, no more than 0.031 µg/mL for the second.

First: COc1ccc2nccc(N3CC(N(C)C[C@@H]4CN(c5cc6c(nn5)OCCO6)C(=O)O4)C3)c2n1 [Example 153, (R)-3-(6,7-Dihydro-[1,4]dioxino[2,3-c]pyridazin-3-yl)-5-({[1-(6-methoxy-[1,5]naphthyridin-4-yl)-azetidin-3-yl]-methyl-amino}-methyl)-oxazolidin-2-one]
Second: COc1ccc2nccc(N3CC[C@H](N(C)C[C@@H]4CN(c5ccc6c(c5)OCCO6)C(=O)O4)C3)c2n1 [Example 112, (R)-3-(2,3-Dihydro-benzo[1,4]dioxin-6-yl)-5-({[(S)-1-(6-methoxy-[1,5]naphthyridin-4-yl)-pyrrolidin-3-yl]-methyl-amino}-methyl)-oxazolidin-2-one]
The MIC of the first is higher: 4 µg/mL (≈ 8.34 µM) for the first, no more than 0.031 µg/mL for the second.

COc1ccc2ncc(F)c(N3CC(NC[C@@H]4CN(c5cc6c(cc5F)SCC(=O)N6)C(=O)O4)C3)c2n1 [Example 155, 7-Fluoro-6-((R)-5-{[1-(3-fluoro-6-methoxy-[1,5]naphthyridin-4-yl)-azetidin-3-ylamino]-methyl}-2-oxo-oxazolidin-3-yl)-4H-benzo[1,4]thiazin-3-one] and COc1ccc2ncc(F)c(C3(O)CCN(C[C@@H]4CN(c5ccc6c(c5)NC(=O)CS6)C(=O)O4)CC3)c2n1 [Example 126, 6-{(R)-5-[4-(3-Fluoro-6-methoxy-[1,5]naphthyridin-4-yl)-4-hydroxy-piperidin-1-ylmethyl]-2-oxo-oxazolidin-3-yl}-4H-benzo[1,4]thiazin-3-one] cannot be ordered by MIC: no more than 0.031 µg/mL for the first, no more than 0.031 µg/mL for the second.

COc1ccc2nccc(N3CCN(C[C@@H]4CN(c5ccc(C)c(C)c5)C(=O)O4)CC3)c2n1 [Example 27, (R)-3-(3,4-Dimethyl-phenyl)-5-[4-(6-methoxy-[1,5]naphthyridin-4-yl)-piperazin-1-ylmethyl]-oxazolidin-2-one] and COc1ccc2nccc(N3CCN(C[C@@H]4CN(c5ccc(Br)c(F)c5)C(=O)O4)CC3)c2n1 [Example 13, (R)-3-(4-Bromo-3-fluoro-phenyl)-5-[4-(6-methoxy-[1,5]naphthyridin-4-yl)-piperazin-1-ylmethyl]-oxazolidin-2-one] cannot be ordered by MIC: no more than 0.031 µg/mL for the first, no more than 0.031 µg/mL for the second.

COc1ccc(N2C[C@@H](CNC3CN(c4ccnc5ccc(OC)nc45)C3)OC2=O)cc1 [Example 174, (R)-5-{[1-(6-Methoxy-[1,5]naphthyridin-4-yl)-azetidin-3-ylamino]-methyl}-3-(4-methoxy-phenyl)-oxazolidin-2-one] and COc1ccc2nccc(N3CC(NC[C@@H]4CN(c5ccc(C)c(F)c5)C(=O)O4)C3)c2n1 [Example 50, (R)-3-(3-Fluoro-4-methyl-phenyl)-5-{[1-(6-methoxy-[1,5]naphthyridin-4-yl)-azetidin-3-ylamino]-methyl}-oxazolidin-2-one] cannot be ordered by MIC: no more than 0.031 µg/mL for the first, no more than 0.031 µg/mL for the second.

First: COc1ccc2nccc(N3CCN(C[C@@H]4CN(c5ccc(OC(F)F)cc5)C(=O)O4)CC3)c2n1 [Example 20, (R)-3-(4-Difluoromethoxy-phenyl)-5-[4-(6-methoxy-[1,5]naphthyridin-4-yl)-piperazin-1-ylmethyl]-oxazolidin-2-one]
Second: COc1ccc2nccc(N3CCN(C[C@@H]4CN(c5ccc(OC(F)(F)F)cc5)C(=O)O4)CC3)c2n1 [Example 11, (R)-5-[4-(6-Methoxy-[1,5]naphthyridin-4-yl)-piperazin-1-ylmethyl]-3-(4-trifluoromethoxy-phenyl)-oxazolidin-2-one]
The MIC of the first is lower: no more than 0.031 µg/mL for the first, 0.063 µg/mL (≈ 0.125 µM) for the second.

COc1ccc2nccc(N3CC[C@@H](NC[C@@H]4CN(c5ccc6c(c5)NC(=O)CO6)C(=O)O4)C3)c2n1 [Example 72, 6-((R)-5-{[(R)-1-(6-Methoxy-[1,5]naphthyridin-4-yl)-pyrrolidin-3-ylamino]-methyl}-2-oxo-oxazolidin-3-yl)-4H-benzo[1,4]oxazin-3-one] and COc1ccc2nccc(N3CCN(C[C@@H]4CN(c5ccc6c(c5)NC(=O)CO6)C(=O)O4)CC3)c2n1 [Example 96, 6-{(R)-5-[4-(6-Methoxy-[1,5]naphthyridin-4-yl)-piperazin-1-ylmethyl]-2-oxo-oxazolidin-3-yl}-4H-benzo[1,4]oxazin-3-one] cannot be ordered by MIC: no more than 0.031 µg/mL for the first, no more than 0.031 µg/mL for the second.

Compared with COc1ccc2ncnc(N3CCC(O)(CC4CN(c5ccc6c(c5)OCCO6)C(=O)O4)CC3)c2c1 (racemic) [Example 4, (RS)-3-(2,3-Dihydro-benzo[1,4]dioxin-6-yl)-5-[4-hydroxy-1-(6-methoxy-quinazolin-4-yl)-piperidin-4-ylmethyl]-oxazolidin-2-one], COc1ccc2nccc(N3CC(CNC[C@H]4CN(c5ccc6c(c5)OCCO6)C(=O)O4)C3)c2n1 [Example 1, (S)-3-(2,3-Dihydro-benzo[1,4]dioxin-6-yl)-5-({[1-(6-methoxy-[1,5]naphthyridin-4-yl)-azetidin-3-ylmethyl]-amino}-methyl)-oxazolidin-2-one] is higher in MIC: no more than 0.031 µg/mL for the first, 0.25 µg/mL (≈ 0.524 µM) for the second.

COc1ccc2nccc(N3CC(N(C)C[C@@H]4CN(c5ccc(C)c(C(F)(F)F)c5)C(=O)O4)C3)c2n1 [Example 135, (R)-5-({[1-(6-Methoxy-[1,5]naphthyridin-4-yl)-azetidin-3-yl]-methyl-amino}-methyl)-3-(4-methyl-3-trifluoromethyl-phenyl)-oxazolidin-2-one] and COc1ccc2nccc(N3CCN(C[C@@H]4CN(c5ccc(F)c(F)c5)C(=O)O4)CC3)c2n1 [Example 29, (R)-3-(3,4-Difluoro-phenyl)-5-[4-(6-methoxy-[1,5]naphthyridin-4-yl)-piperazin-1-ylmethyl]-oxazolidin-2-one] cannot be ordered by MIC: no more than 0.031 µg/mL for the first, no more than 0.031 µg/mL for the second.

COc1ccc2nccc(N3CC[C@@H](CNC[C@@H]4CN(c5ccc6c(c5)NC(=O)CS6)C(=O)O4)C3)c2c1 [Example 173, 6-[(R)-5-({[(S)-1-(6-Methoxy-quinolin-4-yl)-pyrrolidin-3-ylmethyl]-amino}-methyl)-2-oxo-oxazolidin-3-yl]-4H-benzo[1,4]thiazin-3-one] and COc1ccc2cccc(N3CC(CNC[C@@H]4CN(c5ccc6c(c5)NC(=O)CS6)C(=O)O4)C3)c2n1 [Example 162, 6-[(R)-5-({[1-(2-Methoxy-quinolin-8-yl)-azetidin-3-ylmethyl]-amino}-methyl)-2-oxo-oxazolidin-3-yl]-4H-benzo[1,4]thiazin-3-one] cannot be ordered by MIC: no more than 0.031 µg/mL for the first, no more than 0.031 µg/mL for the second.

COc1ccc2nccc(N3CCC(C(=O)NC[C@@H]4CN(c5ccc6c(c5)OCCO6)C(=O)O4)C3)c2n1 (mixture of isomers) [Example 85, (RS)-1-(6-Methoxy-[1,5]naphthyridin-4-yl)-pyrrolidine-3-carboxylic acid [(R)-3-(2,3-dihydro-benzo[1,4]dioxin-6-yl)-2-oxo-oxazolidin-5-ylmethyl]-amide] was tested, and the MIC was 0.25 µg/mL.
